The text below walks through data of paper PMC6753678, “Fueling Open Innovation for Malaria Transmission-Blocking Drugs: Hundreds of Molecules Targeting Early Parasite Mosquito Stages” (Frontiers in Microbiology, 2019).

Broadly, the pIC50 is the IC50 on a negative log10 scale, so that one unit is a factor of ten.

Data set [1] relates to HepG2 cells. The data set can be described thus: HepG2 cytotoxicity assay. As to conditions: HepG2 cytotoxicity unified across the three screens. The method in brief: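 Cells are plated at 2,500 per well on compound-treated plates in MEM containing 10% fetal bovine serum and 1% NEAA, then incubated 48 h at 37°C.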
The subject of data set [2] is P. falciparum late stage (stages IV-V) gametocytes. Further details: method as in Almela et al 2016. As to conditions: TCAMS screen comparison; ref Almela et al 2016; read-out: Pf GCT ATP IC50; cited from earlier work.
Data set [3] has as its system P. falciparum female gametocytes. Further details: method as in Miguel-Blanco et al 2017. As to conditions: TCAMS screen comparison; ref Miguel-Blanco et al 2017; read-out: Pf FGAA IC50; cited from earlier work.
Data set [4] deals with HepG2 cells. As to conditions: cited from earlier work.
For data set [5], the system named is P. falciparum female gametocytes. The data set can be described thus: P. falciparum female gametogenesis assay (Pf FGAA). As to conditions: 1: YES; 0: NO.
Data set [6] has as its system P. falciparum late stage (stages IV-V) gametocytes. The data set can be described thus: P. falciparum late stage gametocyte ATP depletion assay (Pf GC-ATP). As to conditions: 1: YES; 0: NO.
[7] abbreviates: value reported with the Pf FGAA screen, ref Miguel-Blanco et al 2017.
[8] abbreviates: value reported with the Pf GCT ATP screen, ref Almela et al 2016.

pIC50: −log10 of the molar value. Like-named read-outs stand apart in the source and are kept apart here.

For `COc1ccc(CNC2Cc3ccccc3C2)cc1-c1ccc(S(=O)(=O)NCCN2CCCC2)cc1.O=C(O)C(F)(F)F` [TCMDC-132248], in the data set with HepG2 cells [1], the “Unified cytotox” value was 7.08 µM. The pIC50 was 5.86 in data set [2] and 5.70 in data set [3]. The “HepG2 cytoxicity” value in the data set with HepG2 cells [4] (setting [7]) is given as 5.89 µM; in the data set on HepG2 cells [4] (setting [8]), 8.28 µM. In addition, the “Is compound selective in assay? Pf FGAA active?” value in data set [5] is given as 0 (0: NO). Also, in data set [6], the “Is compound selective in assay? Pf GC-ATP active?” value is given as 0 (0: NO).

For the molecule `COc1ccc(CNC2Cc3ccccc3C2)cc1-c1ccc(OC)c(S(=O)(=O)NCCN2CCCC2)c1.O=C(O)C(F)(F)F` [TCMDC-132251], the “Unified cytotox” value in the data set on HepG2 cells [1] is listed as 11.89 µM. Moreover, the pIC50 in data set [2] was 5.94; in data set [3], 5.57. Besides, the “HepG2 cytoxicity” value is 7.17 µM with HepG2 cells [4] (setting [7]) and 16.6 µM in the data set on HepG2 cells [4] (setting [8]). For the same molecule, in data set [5], the “Is compound selective in assay? Pf FGAA active?” value is recorded as 0 (0: NO). Further, in data set [6], the “Is compound selective in assay? Pf GC-ATP active?” value is listed as 1 (1: YES).

Turning to `Cc1cccc2nc(-c3ccc(-c4ccc(CNCc5ccc(CN)cc5)cc4)s3)[nH]c12.O=C(O)C(F)(F)F` [TCMDC-132809], the “Unified cytotox” value in the data set with HepG2 cells [1] is 19.40 µM. Also, the figures for the pIC50 in data set [2] and in data set [3] were 6.07 and 6.33, respectively. Moreover, the “HepG2 cytoxicity” value in the data set on HepG2 cells [4] (setting [7]) is 14.79 µM; in the data set on HepG2 cells [4] (setting [8]), 24 µM. For the same molecule, the “Is compound selective in assay? Pf FGAA active?” value in data set [5] was 1 (1: YES). For the same molecule, the “Is compound selective in assay? Pf GC-ATP active?” value in data set [6] was 1 (1: YES).

As for `NCc1ccc(CNCc2cccc(-c3ccc(-c4nc5cc(C(F)(F)F)ccc5[nH]4)cc3)c2)cc1.O=C(O)C(F)(F)F` [TCMDC-132811], the “Unified cytotox” value with HepG2 cells [1] was 19.47 µM. Further, the pIC50 in data set [2] is 6.07; in data set [3], 6.08. For the same molecule, the figures for the “HepG2 cytoxicity” value in the data set on HepG2 cells [4] (setting [7]) and with HepG2 cells [4] (setting [8]) were 14.65 µM and 24.3 µM, respectively. Also, the “Is compound selective in assay? Pf FGAA active?” value in data set [5] is on record as 1 (1: YES). Further, the “Is compound selective in assay? Pf GC-ATP active?” value in data set [6] was 1 (1: YES).

Regarding `FC(F)(F)c1ccc2[nH]c(-c3ccc(-c4ccc(CNCCN5CCNCC5)cc4)s3)nc2c1.O=C(O)C(F)(F)F` [TCMDC-132862], the “Unified cytotox” value with HepG2 cells [1] is 9.89 µM. In addition, the pIC50 in data set [2] is 5.89; in data set [3], 5.52. The “HepG2 cytoxicity” value in the data set on HepG2 cells [4] (setting [7]) is 12.88 µM; with HepG2 cells [4] (setting [8]) it was 6.9 µM. Also, the “Is compound selective in assay? Pf FGAA active?” value in data set [5] is recorded as 0 (0: NO). In addition, the “Is compound selective in assay? Pf GC-ATP active?” value in data set [6] is recorded as 0 (0: NO).

Consider `FC(F)(F)c1ccc2[nH]c(-c3ccc(-c4cccc(CNCCN5CCNCC5)c4)cc3)nc2c1.O=C(O)C(F)(F)F` [TCMDC-132864], for which the “Unified cytotox” value in the data set with HepG2 cells [1] is given as 14.90 µM. In addition, the pIC50 in data set [2] is 5.97; in data set [3] it was 5.77. In addition, the “HepG2 cytoxicity” value with HepG2 cells [4] (setting [7]) was 12.31 µM; in the data set on HepG2 cells [4] (setting [8]), 17.5 µM. Moreover, the “Is compound selective in assay? Pf FGAA active?” value in data set [5] is 0 (0: NO). Also, in data set [6], the “Is compound selective in assay? Pf GC-ATP active?” value is on record as 1 (1: YES).

Take `FC(F)(F)c1ccc2[nH]c(-c3cccc(-c4ccc(CNCCN5CCNCC5)cc4)c3)nc2c1.O=C(O)C(F)(F)F` [TCMDC-132872]: in the data set with HepG2 cells [1], the “Unified cytotox” value was 10.72 µM. In addition, the pIC50 in data set [2] is 6.07; in data set [3], 5.75. In addition, the results for the “HepG2 cytoxicity” value with HepG2 cells [4] (setting [7]) and in the data set with HepG2 cells [4] (setting [8]) were 8.81 µM and 12.62 µM, respectively. In addition, the “Is compound selective in assay? Pf FGAA active?” value in data set [5] is given as 0 (0: NO). The “Is compound selective in assay? Pf GC-ATP active?” value in data set [6] is on record as 1 (1: YES).

With `Fc1ccc2[nH]c(-c3ccc(-c4ccc(CN5CCC(CCN6CCCCC6)CC5)cc4)cc3)nc2c1.O=C(O)C(F)(F)F` [TCMDC-133924], the “Unified cytotox” value in the data set on HepG2 cells [1] was found to be 4.62 µM. Further, the pIC50 in data set [2] was 6.34; in data set [3], 5.77. Moreover, the “HepG2 cytoxicity” value in the data set on HepG2 cells [4] (setting [7]) was 3.94 µM; in the data set on HepG2 cells [4] (setting [8]) it was 5.3 µM. Besides, the “Is compound selective in assay? Pf FGAA active?” value in data set [5] was 0 (0: NO). The “Is compound selective in assay? Pf GC-ATP active?” value in data set [6] was 1 (1: YES).

Consider `Fc1ccc2[nH]c(-c3cccc(-c4ccc(CN5CCC(CCN6CCCCC6)CC5)cc4)c3)nc2c1.O=C(O)C(F)(F)F` [TCMDC-133940], for which the “Unified cytotox” value with HepG2 cells [1] is recorded as 4.99 µM. Besides, the pIC50 in data set [2] was 6.37; in data set [3] it was 5.73. In addition, the “HepG2 cytoxicity” value in the data set on HepG2 cells [4] (setting [7]) is recorded as 4.79 µM; in the data set with HepG2 cells [4] (setting [8]) it was 5.2 µM. Besides, the “Is compound selective in assay? Pf FGAA active?” value in data set [5] is on record as 0 (0: NO). For the same molecule, the “Is compound selective in assay? Pf GC-ATP active?” value in data set [6] is 1 (1: YES).

With `FC(F)(F)c1ccc2[nH]c(-c3ccc(-c4cccc(CN5CCC(CCN6CCCCC6)CC5)c4)cc3)nc2c1.O=C(O)C(F)(F)F` [TCMDC-133941], the “Unified cytotox” value with HepG2 cells [1] is recorded as 3.93 µM. In addition, the results for the pIC50 in data set [2] and in data set [3] were 6.29 and 5.90, respectively. Also, the entries for the “HepG2 cytoxicity” value in the data set with HepG2 cells [4] (setting [7]) and in the data set with HepG2 cells [4] (setting [8]) were 4.45 µM and 3.4 µM, respectively. Moreover, the “Is compound selective in assay? Pf FGAA active?” value in data set [5] was 0 (0: NO). The “Is compound selective in assay? Pf GC-ATP active?” value in data set [6] was 0 (0: NO).

As for `Cc1n[nH]c2ccc(-c3ccc4nccc(N5CCC(N)CC5)c4c3)cc12.Cl` [TCMDC-134315], the “Unified cytotox” value in the data set with HepG2 cells [1] turned out to be 9.27 µM. Besides, the results for the pIC50 in data set [2] and in data set [3] were 6.42 and 5.61, respectively. The entries for the “HepG2 cytoxicity” value in the data set on HepG2 cells [4] (setting [7]) and in the data set with HepG2 cells [4] (setting [8]) were 6.88 µM and 11.66 µM, respectively. The “Is compound selective in assay? Pf FGAA active?” value in data set [5] is recorded as 0 (0: NO). In data set [6], the “Is compound selective in assay? Pf GC-ATP active?” value is 1 (1: YES).

For `CC(C)c1ccc(CN2CCC(CNC(=O)c3cc(-c4cccc(F)c4)cs3)C2)cc1.O=C(O)C(F)(F)F` (stereo not drawn) [TCMDC-134437], the “Unified cytotox” value with HepG2 cells [1] came to 5.77 µM. Also, the figures for the pIC50 in data set [2] and in data set [3] were 6.35 and 5.86, respectively. For the same molecule, the “HepG2 cytoxicity” value in the data set on HepG2 cells [4] (setting [7]) was 6.24 µM; with HepG2 cells [4] (setting [8]) it was 5.3 µM. For the same molecule, the “Is compound selective in assay? Pf FGAA active?” value in data set [5] is given as 0 (0: NO). For the same molecule, the “Is compound selective in assay? Pf GC-ATP active?” value in data set [6] was 1 (1: YES).

In the case of `CC(C)(C)c1ccc(CN2CCC(CNC(=O)c3cc(-c4ccccc4C(F)(F)F)cs3)C2)cc1.O=C(O)C(F)(F)F` (stereo not drawn) [TCMDC-134441], the “Unified cytotox” value in the data set on HepG2 cells [1] is given as 8.09 µM. The pIC50 in data set [2] was 6.51; in data set [3], 6.16. Also, the “HepG2 cytoxicity” value is recorded as 9.77 µM with HepG2 cells [4] (setting [7]) and 6.4 µM in the data set on HepG2 cells [4] (setting [8]). Besides, in data set [5], the “Is compound selective in assay? Pf FGAA active?” value was 1 (1: YES). For the same molecule, the “Is compound selective in assay? Pf GC-ATP active?” value in data set [6] was 1 (1: YES).

For `CC(C)(C)c1ccc(CN2CCC(CNC(=O)c3cc(-c4cccc(C(F)(F)F)c4)cs3)C2)cc1.O=C(O)C(F)(F)F` (stereo not drawn) [TCMDC-134442], in the data set with HepG2 cells [1], the “Unified cytotox” value was 5.65 µM. Besides, the figures for the pIC50 in data set [2] and in data set [3] were 6.38 and 6.02, respectively. In addition, the results for the “HepG2 cytoxicity” value with HepG2 cells [4] (setting [7]) and in the data set with HepG2 cells [4] (setting [8]) were 6.39 µM and 4.9 µM, respectively. In data set [5], the “Is compound selective in assay? Pf FGAA active?” value is on record as 0 (0: NO). For the same molecule, the “Is compound selective in assay? Pf GC-ATP active?” value in data set [6] is 1 (1: YES).

For the molecule `CC(C)(C)c1ccc(CN2CCC(CNC(=O)c3cc(-c4ccccc4F)cs3)C2)cc1.O=C(O)C(F)(F)F` (stereo not drawn) [TCMDC-134443], the “Unified cytotox” value in the data set with HepG2 cells [1] is on record as 8.35 µM. The pIC50 was 6.47 in data set [2] and 6.08 in data set [3]. Further, the “HepG2 cytoxicity” value in the data set with HepG2 cells [4] (setting [7]) is 9.30 µM; with HepG2 cells [4] (setting [8]) it was 7.4 µM. In addition, in data set [5], the “Is compound selective in assay? Pf FGAA active?” value was 1 (1: YES). Besides, the “Is compound selective in assay? Pf GC-ATP active?” value in data set [6] is recorded as 1 (1: YES).
